Measurements published in ChEMBL document CHEMBL1122324, “New antihypertensive cannabinoids” (1983).

Columns and labels:
Details in all cases: route oral
Rattus norvegicus [1] = assay: Percentage decrease in systolic blood pressure (heart rate) after 24 hr at 100 mg/kg administered perorally in rats; format: functional, Artery
Rattus norvegicus [2] = assay: Percentage decrease in systolic blood pressure (heart rate) after 4 hr at 100 mg/kg administered perorally in rats; format: functional, Artery
Rattus norvegicus [3] = assay: Percentage decrease in systolic blood pressure after 1 hr at 1 mg/kg administered perorally in rats; format: functional, Artery
Rattus norvegicus [4] = assay: percentage decrease in heart rate after 1 hr at a dose of 10 mg/kg administered perorally in rats; format: functional
Rattus norvegicus [5] = assay: Percentage decrease in systolic blood pressure after 1 hr at 0.3 mg/kg administered perorally in rats; format: functional, Artery
Rattus norvegicus [6] = assay: Percentage decrease in systolic blood pressure after 1 hr at 10 mg/kg administered perorally in rats; format: functional, Artery
Rattus norvegicus [7] = assay: percentage decrease in heart rate after 4 hr at a dose of 1 mg/kg administered perorally in rats; format: functional
Rattus norvegicus [8] = assay: Percentage decrease in systolic blood pressure after 6 hr at 10 mg/kg administered perorally in rats; format: functional, Artery
Rattus norvegicus [9] = assay: Percentage decrease in systolic blood pressure after 24 hr at 0.3 mg/kg administered perorally in rats; format: functional, Artery
Rattus norvegicus [10] = assay: Percentage decrease in systolic blood pressure after 6 hr at 1 mg/kg administered perorally in rats; format: functional, Artery
Rattus norvegicus [11] = assay: percentage decrease in heart rate after 1 hr at a dose of 0.3 mg/kg administered perorally in rats; format: functional
Rattus norvegicus [12] = assay: Percentage decrease in systolic blood pressure after 24 hr at 3 mg/kg administered perorally in rats; format: functional, Artery
Rattus norvegicus [13] = assay: percentage decrease in heart rate after 6 hr at a dose of 3 mg/kg administered perorally in rats; format: functional
Rattus norvegicus [14] = assay: Percentage decrease in systolic blood pressure after 4 hr at 10 mg/kg administered perorally in rats; format: functional, Artery
Rattus norvegicus [15] = assay: Percentage decrease in systolic blood pressure after 4 hr at 3 mg/kg administered perorally in rats; format: functional, Artery
Rattus norvegicus [16] = assay: percentage decrease in heart rate after 6 hr at a dose of 10 mg/kg administered perorally in rats; format: functional
Rattus norvegicus [17] = assay: percentage decrease in heart rate after 4 hr at a dose of 3 mg/kg administered perorally in rats; format: functional
Rattus norvegicus [18] = assay: percentage decrease in heart rate after 1 hr at a dose of 1 mg/kg administered perorally in rats; format: functional
Rattus norvegicus [19] = assay: percentage decrease in heart rate after 24 hr at a dose of 3 mg/kg administered perorally in rats; format: functional
Rattus norvegicus [20] = assay: Percentage decrease in systolic blood pressure after 24 hr at 30 mg/kg administered perorally in rats; format: functional, Artery
Rattus norvegicus [21] = assay: Percentage decrease in systolic blood pressure after 4 hr at 30 mg/kg administered perorally in rats; format: functional, Artery
Rattus norvegicus [22] = assay: Percentage decrease in systolic blood pressure after 1 hr at 3 mg/kg administered perorally in rats; format: functional, Artery
Rattus norvegicus [23] = assay: Percentage decrease in systolic blood pressure after 6 hr at 30 mg/kg administered perorally in rats; format: functional, Artery
Rattus norvegicus [24] = assay: percentage decrease in heart rate after 4 hr at a dose of 30 mg/kg administered perorally in rats; format: functional
Rattus norvegicus [25] = assay: percentage decrease in heart rate after 6 hr at a dose of 1 mg/kg administered perorally in rats; format: functional
Rattus norvegicus [26] = assay: Percentage decrease in systolic blood pressure after 6 hr at 3 mg/kg administered perorally in rats; format: functional, Artery
Rattus norvegicus [27] = assay: percentage decrease in heart rate after 24 hr at a dose of 1 mg/kg administered perorally in rats; format: functional
Rattus norvegicus [28] = assay: Percentage decrease in systolic blood pressure after 24 hr at 10 mg/kg administered perorally in rats; format: functional, Artery
Rattus norvegicus [29] = assay: percentage decrease in heart rate after 24 hr at a dose of 0.3 mg/kg administered perorally in rats; format: functional
Rattus norvegicus [30] = assay: percentage decrease in heart rate after 6 hr at a dose of 0.3 mg/kg administered perorally in rats; format: functional
Rattus norvegicus [31] = assay: Percentage decrease in systolic blood pressure after 4 hr at 1 mg/kg administered perorally in rats; format: functional, Artery
Rattus norvegicus [32] = assay: percentage decrease in heart rate after 1 hr at a dose of 3 mg/kg administered perorally in rats; format: functional
Rattus norvegicus [33] = assay: Percentage decrease in systolic blood pressure after 24 hr at 1 mg/kg administered perorally in rats; format: functional, Artery
Rattus norvegicus [34] = assay: percentage decrease in heart rate after 6 hr at a dose of 30 mg/kg administered perorally in rats; format: functional
Rattus norvegicus [35] = assay: percentage decrease in heart rate after 4 hr at a dose of 0.3 mg/kg administered perorally in rats; format: functional
Rattus norvegicus [36] = assay: Percentage decrease in systolic blood pressure after 6 hr at 0.3 mg/kg administered perorally in rats; format: functional, Artery
Rattus norvegicus [37] = assay: percentage decrease in heart rate after 4 hr at a dose of 10 mg/kg administered perorally in rats; format: functional
Rattus norvegicus [38] = assay: Percentage decrease in systolic blood pressure after 1 hr at 30 mg/kg administered perorally in rats; format: functional, Artery
Rattus norvegicus [39] = assay: Percentage decrease in systolic blood pressure after 4 hr at 0.3 mg/kg administered perorally in rats; format: functional, Artery
Rattus norvegicus [40] = assay: percentage decrease in heart rate after 24 hr at a dose of 10 mg/kg administered perorally in rats; format: functional
Rattus norvegicus [41] = assay: percentage decrease in heart rate after 1 hr at a dose of 30 mg/kg administered perorally in rats; format: functional
Rattus norvegicus [42] = assay: Percentage decrease in systolic blood pressure (heart rate) after 4 hr at 1 mg/kg administered perorally in rats; format: functional, Artery
Rattus norvegicus [43] = assay: Percentage decrease in systolic blood pressure (heart rate) after 24 hr at 10 mg/kg administered perorally in rats; format: functional, Artery
Rattus norvegicus [44] = assay: Effect on spontaneous motor activity in rats after 1 hr at 0.1 mg/kg given perorally; format: functional
Rattus norvegicus [45] = assay: Effect on spontaneous motor activity in rats after 2 hr at 30 mg/kg given perorally; format: functional
Rattus norvegicus [46] = assay: Cumulative effect on spontaneous motor activity in rats at 0.1 mg/kg given perorally; format: functional
Rattus norvegicus [47] = assay: Effect on spontaneous motor activity in rats after 1 hr at 1 mg/kg given perorally; format: functional
Rattus norvegicus [48] = assay: Effect on spontaneous motor activity in rats after 1 hr at 10 mg/kg given perorally; format: functional
Rattus norvegicus [49] = assay: Percentage decrease in systolic blood pressure (heart rate) after 4 hr at 10 mg/kg administered perorally in rats; format: functional, Artery
Rattus norvegicus [50] = assay: Effect on spontaneous motor activity in rats after 1 hr at 0.3 mg/kg given perorally; format: functional
Rattus norvegicus [51] = assay: Effect on spontaneous motor activity in rats after 2 hr at 0.3 mg/kg given perorally; format: functional
Rattus norvegicus [52] = assay: Percentage decrease in systolic blood pressure (heart rate) after 24 hr at 0.3 mg/kg administered perorally in rats; format: functional, Artery
Rattus norvegicus [53] = assay: Percentage decrease in systolic blood pressure (heart rate) after 1 hr at 0.3 mg/kg administered perorally in rats; format: functional, Artery
Rattus norvegicus [54] = assay: Effect on spontaneous motor activity in rats after 2 hr at 3 mg/kg given perorally; format: functional
Rattus norvegicus [55] = assay: Effect on spontaneous motor activity in rats after 2 hr at 0.1 mg/kg given perorally; format: functional
Rattus norvegicus [56] = assay: Percentage decrease in systolic blood pressure (heart rate) after 6 hr at 3 mg/kg administered perorally in rats; format: functional, Artery
Rattus norvegicus [57] = assay: Percentage decrease in systolic blood pressure (heart rate) after 6 hr at 1 mg/kg administered perorally in rats; format: functional, Artery
Rattus norvegicus [58] = assay: Percentage decrease in systolic blood pressure (heart rate) after 4 hr at 0.3 mg/kg administered perorally in rats; format: functional, Artery
Rattus norvegicus [59] = assay: Cumulative effect on spontaneous motor activity in rats at 0.3 mg/kg given perorally; format: functional
Rattus norvegicus [60] = assay: Effect on spontaneous motor activity in rats after 1 hr at 3 mg/kg given perorally; format: functional
Rattus norvegicus [61] = assay: Percentage decrease in systolic blood pressure (heart rate) after 6 hr at 0.3 mg/kg administered perorally in rats; format: functional, Artery
Rattus norvegicus [62] = assay: Cumulative effect on spontaneous motor activity in rats at 300 mg/kg given perorally; format: functional
Rattus norvegicus [63] = assay: Percentage decrease in systolic blood pressure (heart rate) after 1 hr at 10 mg/kg administered perorally in rats; format: functional, Artery
Rattus norvegicus [64] = assay: Effect on spontaneous motor activity in rats after 2 hr at 1 mg/kg given perorally; format: functional
Rattus norvegicus [65] = assay: Effect on spontaneous motor activity in rats after 2 hr at 10 mg/kg given perorally; format: functional
Rattus norvegicus [66] = assay: Effect on spontaneous motor activity in rats after 1 hr at 30 mg/kg given perorally; format: functional
Rattus norvegicus [67] = assay: Percentage decrease in systolic blood pressure (heart rate) after 1 hr at 3 mg/kg administered perorally in rats; format: functional, Artery
Rattus norvegicus [68] = assay: Percentage decrease in systolic blood pressure (heart rate) after 4 hr at 3 mg/kg administered perorally in rats; format: functional, Artery
Rattus norvegicus [69] = assay: Percentage decrease in systolic blood pressure (heart rate) after 24 hr at 1 mg/kg administered perorally in rats; format: functional, Artery
Rattus norvegicus [70] = assay: Cumulative effect on spontaneous motor activity in rats at 3 mg/kg given perorally; format: functional

`CCCCCc1cc(O)c2c(c1)OC(C)(C)[C@@H]1CCC(C)=C[C@@H]21` [DRONABINOL] was tested, and the “Decrease in Systolic blood pressure” value (Rattus norvegicus [1]) was 21% and the “Decrease in Systolic blood pressure” value (Rattus norvegicus [2]) was 39%.

In the case of `C#CCN1CCC2=C(C1)c1c(O)cc(C(C)CCCc3ccc(F)cc3)cc1OC2(C)C` (stereo not given), the “Decrease in Systolic blood pressure” value (Rattus norvegicus [3]) is reported as 1%, the Heart rate (Rattus norvegicus [4]) is reported as -3% and the “Decrease in Systolic blood pressure” value (Rattus norvegicus [5]) is reported as -5%. The “Decrease in Systolic blood pressure” value (Rattus norvegicus [6]) was 34%, the Heart rate (Rattus norvegicus [7]) was 3% and the “Decrease in Systolic blood pressure” value (Rattus norvegicus [8]) was 20%. The “Decrease in Systolic blood pressure” value (Rattus norvegicus [9]) was -3%, the “Decrease in Systolic blood pressure” value (Rattus norvegicus [10]) was 5% and the Heart rate (Rattus norvegicus [11]) was -29%. For the same compound, the “Decrease in Systolic blood pressure” value (Rattus norvegicus [12]) was 11%, the Heart rate (Rattus norvegicus [13]) was -7% and the “Decrease in Systolic blood pressure” value (Rattus norvegicus [14]) was 30%. The “Decrease in Systolic blood pressure” value (Rattus norvegicus [15]) was 27%, the Heart rate (Rattus norvegicus [16]) was 1% and the Heart rate (Rattus norvegicus [17]) was 10%. For the same compound, the Heart rate (Rattus norvegicus [18]) was -9%, the Heart rate (Rattus norvegicus [19]) was -14% and the “Decrease in Systolic blood pressure” value (Rattus norvegicus [20]) was 43%. For the same compound, the “Decrease in Systolic blood pressure” value (Rattus norvegicus [21]) was 23%, the “Decrease in Systolic blood pressure” value (Rattus norvegicus [22]) was 8% and the “Decrease in Systolic blood pressure” value (Rattus norvegicus [23]) was 26%. The Heart rate (Rattus norvegicus [24]) was 16%, the Heart rate (Rattus norvegicus [25]) was 5% and the “Decrease in Systolic blood pressure” value (Rattus norvegicus [26]) was 9%. For the same compound, the Heart rate (Rattus norvegicus [27]) was -18%, the “Decrease in Systolic blood pressure” value (Rattus norvegicus [28]) was 20% and the Heart rate (Rattus norvegicus [29]) was -5%. The Heart rate (Rattus norvegicus [30]) was -12%, the “Decrease in Systolic blood pressure” value (Rattus norvegicus [31]) was 17% and the Heart rate (Rattus norvegicus [32]) was -7%. For the same compound, the “Decrease in Systolic blood pressure” value (Rattus norvegicus [33]) was 9%, the Heart rate (Rattus norvegicus [34]) was 36% and the Heart rate (Rattus norvegicus [35]) was -10%. For the same compound, the “Decrease in Systolic blood pressure” value (Rattus norvegicus [36]) was -5%, the Heart rate (Rattus norvegicus [37]) was -2% and the “Decrease in Systolic blood pressure” value (Rattus norvegicus [38]) was 33%. For the same compound, the “Decrease in Systolic blood pressure” value (Rattus norvegicus [39]) was -7%, the Heart rate (Rattus norvegicus [40]) was -6% and the Heart rate (Rattus norvegicus [41]) was 5%.

`CCCCCCCc1cc(O)c2c(c1)OC(C)(C)c1ccc(C)cc1-2` was tested, and the “Decrease in Systolic blood pressure” value (Rattus norvegicus [42]) was 20%, the “Decrease in Systolic blood pressure” value (Rattus norvegicus [43]) was 29% and the Activity (Rattus norvegicus [44]) was -3%. For the same compound, the Activity (Rattus norvegicus [45]) was -94%, the Activity (Rattus norvegicus [46]) was -2% and the Activity (Rattus norvegicus [47]) was -32%. For the same compound, the Activity (Rattus norvegicus [48]) was -46%, the “Decrease in Systolic blood pressure” value (Rattus norvegicus [49]) was 58% and the Activity (Rattus norvegicus [50]) was -21%. The Activity (Rattus norvegicus [51]) was 28%, the “Decrease in Systolic blood pressure” value (Rattus norvegicus [52]) was 0% and the “Decrease in Systolic blood pressure” value (Rattus norvegicus [53]) was 3%. For the same compound, the Activity (Rattus norvegicus [54]) was -17%, the Activity (Rattus norvegicus [55]) was 10% and the “Decrease in Systolic blood pressure” value (Rattus norvegicus [56]) was 38%. The “Decrease in Systolic blood pressure” value (Rattus norvegicus [57]) was 33%, the “Decrease in Systolic blood pressure” value (Rattus norvegicus [58]) was 10% and the Activity (Rattus norvegicus [59]) was -17%. The Activity (Rattus norvegicus [60]) was -20%, the “Decrease in Systolic blood pressure” value (Rattus norvegicus [61]) was 2% and the Activity (Rattus norvegicus [62]) was -89%. For the same compound, the “Decrease in Systolic blood pressure” value (Rattus norvegicus [63]) was 9%, the Activity (Rattus norvegicus [64]) was 87% and the Activity (Rattus norvegicus [65]) was -98%. The Activity (Rattus norvegicus [66]) was -88%, the “Decrease in Systolic blood pressure” value (Rattus norvegicus [67]) was 3% and the “Decrease in Systolic blood pressure” value (Rattus norvegicus [68]) was 44%. For the same compound, the “Decrease in Systolic blood pressure” value (Rattus norvegicus [69]) was -7% and the Activity (Rattus norvegicus [70]) was -20%.
